Reference: US20220033397A1, “PHARMACEUTICAL COMPOUNDS AND THEIR USE AS INHIBITORS OF UBIQUITIN SPECIFIC PROTEASE 19 (USP19)” (ALMAC DISCOVERY LIMITED, priority 2018, published 2022)

target: T1, Full-length USP19 (Homo sapiens, UniProt O94966); assay: USP19 fluorescence polarisation (FP) homogeneous assay with Ubiquitin-Lys-TAMRA substrate; assay type: biochemical; settings: 2.5 nM USP19, 30 min pre-incubation, average of at least two duplicate experiments
T1 construct: Full-length USP19 was purchased from Boston Biochem (E-576); purchased Boston Biochem E-576
T1 sequence (O94966 1-1318): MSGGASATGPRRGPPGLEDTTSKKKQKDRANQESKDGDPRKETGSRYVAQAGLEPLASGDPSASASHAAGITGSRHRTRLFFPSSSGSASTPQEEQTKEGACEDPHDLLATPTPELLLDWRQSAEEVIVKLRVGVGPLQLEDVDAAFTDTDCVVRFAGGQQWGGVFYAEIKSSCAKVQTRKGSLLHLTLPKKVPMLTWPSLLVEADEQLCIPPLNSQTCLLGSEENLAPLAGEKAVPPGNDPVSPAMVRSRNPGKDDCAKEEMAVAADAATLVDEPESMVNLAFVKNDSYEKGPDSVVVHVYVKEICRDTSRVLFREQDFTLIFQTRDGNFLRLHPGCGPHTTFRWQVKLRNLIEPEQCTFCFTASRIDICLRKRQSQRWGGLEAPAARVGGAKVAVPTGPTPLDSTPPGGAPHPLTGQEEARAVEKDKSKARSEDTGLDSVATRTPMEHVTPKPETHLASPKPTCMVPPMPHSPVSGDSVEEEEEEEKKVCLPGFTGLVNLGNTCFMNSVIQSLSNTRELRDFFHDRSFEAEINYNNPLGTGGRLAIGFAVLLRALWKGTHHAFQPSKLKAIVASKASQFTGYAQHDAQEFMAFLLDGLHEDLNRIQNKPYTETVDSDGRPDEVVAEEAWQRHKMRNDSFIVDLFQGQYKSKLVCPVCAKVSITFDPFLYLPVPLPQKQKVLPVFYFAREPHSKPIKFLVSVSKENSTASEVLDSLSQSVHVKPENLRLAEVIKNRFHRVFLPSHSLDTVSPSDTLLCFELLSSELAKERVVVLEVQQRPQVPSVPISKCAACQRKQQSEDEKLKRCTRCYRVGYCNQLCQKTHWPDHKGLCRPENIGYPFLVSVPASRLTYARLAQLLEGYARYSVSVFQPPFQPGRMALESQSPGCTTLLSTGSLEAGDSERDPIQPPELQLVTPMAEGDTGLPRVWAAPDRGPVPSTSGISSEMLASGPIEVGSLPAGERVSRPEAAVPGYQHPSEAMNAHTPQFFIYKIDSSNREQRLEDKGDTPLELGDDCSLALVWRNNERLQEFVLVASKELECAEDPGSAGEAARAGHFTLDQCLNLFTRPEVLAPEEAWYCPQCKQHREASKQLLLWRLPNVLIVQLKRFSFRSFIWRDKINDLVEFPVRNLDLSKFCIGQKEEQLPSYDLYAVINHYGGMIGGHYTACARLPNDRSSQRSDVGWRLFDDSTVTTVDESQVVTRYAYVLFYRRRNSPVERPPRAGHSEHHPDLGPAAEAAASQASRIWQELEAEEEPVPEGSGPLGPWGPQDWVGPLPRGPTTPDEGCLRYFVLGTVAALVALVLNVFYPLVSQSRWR
Procedure, shortened: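 Full-length USP19 preincubated 30 min at RT with inhibitor (200 μM to 2 μM series, 8–18 points) before adding 500 nM Ubiquitin-Lys-TAMRA substrate.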

Q: How did the IC50 turn out when O=C(N1CCC(O)(Cn2cnc(-c3ccccc3)cc2=O)C2(CCCC2)C1)N1CCOC2CC21 (stereo not drawn) [Example 243, 3-((7-(2-Oxa-5-azabicyclo[4.1.0]heptane-5-carbonyl)-10-hydroxy-7-azaspiro[4.5]decan-10-yl)methyl)-6-phenylpyrimidin-4(3H)-one] was run?
A: 5 to 50 µM

Q: C[C@H](CC1CCCCC1)C(=O)N1CCC(O)(Cn2cnc3ccncc3c2=O)C2(CCCC2)C1 (stereo partly drawn) [Example 157, 3-((7-((R)-3-Cyclohexyl-2-methylpropanoyl)-10-hydroxy-7-azaspiro[4.5]decan-10-yl)methyl)pyrido[4,3-d]pyrimidin-4(3H)-one] was tested. Which IC50 did it give?
A: 0.5 to 5 µM

Q: With C[C@H](CC1CCCCC1)C(=O)N1CCC(O)(Cn2cnc3cn(C)nc3c2=O)C2(CCCC2)C1 (stereo partly drawn) [Example 173, 6-((7-((R)-3-Cyclohexyl-2-methylpropanoyl)-10-hydroxy-7-azaspiro[4.5]decan-10-yl)methyl)-2-methyl-2,6-dihydro-7H-pyrazolo[4,3-d]pyrimidin-7-one] as the compound, how does the IC50 read?
A: 5 to 50 µM

Q: With COc1ccc2c(=O)n(CC3(O)CCN(C(=O)[C@H](C)CC(F)(F)F)CC34CCCC4)cnc2c1 (stereo partly drawn) [Example 133, 3-((10-Hydroxy-7-((R)-4,4,4-trifluoro-2-methylbutanoyl)-7-azaspiro[4.5]decan-10-yl)methyl)-7-methoxyquinazolin-4(3H)-one] as the compound, how does the IC50 read?
A: 5 to 50 µM

Q: O=C(N1CCC(C2CC2)C1)N1CCC(O)(Cn2cnc(-c3ccccc3)cc2=O)C2(CCCC2)C1 (stereo not drawn) [Example 237, 3-((7-(3-Cyclopropylpyrrolidine-1-carbonyl)-10-hydroxy-7-azaspiro[4.5]decan-10-yl)methyl)-6-phenylpyrimidin-4(3H)-one] was tested. Which IC50 did it give?
A: 5 to 50 µM

Q: How did the IC50 turn out when C[C@H](CC1CCCCC1)C(=O)N1CCC(O)(Cn2cnc3sccc3c2=O)C2(CCCC2)C1 (stereo partly drawn) [Example 132, 3-((7-((R)-3-Cyclohexyl-2-methylpropanoyl)-10-hydroxy-7-azaspiro[4.5]decan-10-yl)methyl)thieno[2,3-d]pyrimidin-4(3H)-one] was run?
A: 0.5 to 5 µM

Q: For C[C@H](CC1CCCCC1)C(=O)N1CCC(O)(CN2CCOCC2=O)C2(CCCC2)C1 (stereo partly drawn) [Example 31, 4-((7-((R)-3-Cyclohexyl-2-methylpropanoyl)-10-hydroxy-7-azaspiro[4.5]decan-10-yl)methyl)morpholin-3-one], which IC50 is on record?
A: < 0.5 µM

Q: C[C@H](CC1CCCCC1)C(=O)N1CCC(O)(Cn2cc([S+](C)[O-])c(Cl)cc2=O)C2(CCCC2)C1 (stereo partly drawn) [Example 70, 4-Chloro-1-((7-((R)-3-cyclohexyl-2-methylpropanoyl)-10-hydroxy-7-azaspiro[4.5]decan-10-yl)methyl)-5-(methylsulfinyl)pyridin-2(1H)-one] was tested. Which IC50 did it give?
A: < 0.5 µM

Q: How did the IC50 turn out when C[C@H](CC1CCCCC1)C(=O)N1CCC(O)(Cn2cnc3c(cnn3-c3ccccc3)c2=O)C2(CCCC2)C1 (stereo partly drawn) [Example 176, 5-((7-((R)-3-Cyclohexyl-2-methylpropanoyl)-10-hydroxy-7-azaspiro[4.5]decan-10-yl)methyl)-1-phenyl-1,5-dihydro-4H-pyrazolo[3,4-d]pyrimidin-4-one] was run?
A: < 0.5 µM

Q: With O=C(N1CC[C@@](O)(Cn2cnc(-c3cccc(F)c3F)cc2=O)C2(CCCC2)C1)N1CCNC[C@H]1c1ccccc1 [Example 385, 6-(2,3-Difluoro-phenyl)-3-(((S)-10-hydroxy-7-((R)-2-phenylpiperazine-1-carbonyl)-7-aza-spiro[4.5]decan-10-yl)methyl)pyrimidin-4(3H)-one] as the compound, how does the IC50 read?
A: < 0.5 µM

Q: Which IC50 does the source give for CN(C)C(=O)c1cn(CC2(O)CCN(C(=O)Oc3ccc([N+](=O)[O-])cc3)CC23CCCC3)c(=O)cc1-c1ccccc1 (stereo not drawn) [Example 83, 4-Nitrophenyl 10-((5-(dimethylcarbamoyl)-2-oxo-4-phenylpyridin-1(2H)-yl)methyl)-10-hydroxy-7-azaspiro[4.5]decane-7-carboxylate] here?
A: 50 to 250 µM

Q: O=C(N1CCC(O)(Cn2ccc3ccncc3c2=O)C2(CCCC2)C1)N1CCNC[C@H]1c1ccccc1 (stereo partly drawn) [Example 171, 2-((10-Hydroxy-7-((R)-2-phenylpiperazine-1-carbonyl)-7-azaspiro[4.5]decan-10-yl)methyl)-2,7-naphthyridin-1(2H)-one] was tested. Which IC50 did it give?
A: < 0.5 µM
